Results: patent publication US9062124B2, “GIP-based mixed agonists for treatment of metabolic disorders and obesity” (priority 2008, dated 2015)
Where a SMILES comes first, the peptide text is derived from it. Bridges are numbered along the chain shown (N, C = ends). Where no end group is shown, it is not given here. [ ]: non-standard residue; d: D form. PhLac = O=C(O)[C@@H](O)Cc1ccccc1; Dab = NCC[C@H](N)C(=O)O; Aib = CC(C)(N)C(=O)O

Tests used:
glucagon receptor = target: T1, glucagon receptor (Homo sapiens, UniProt P47871); test: cAMP synthesis functional assay (firefly luciferase reporter in HEK293 cells), glucagon receptor; assay type: cell-based; conditions: for Glucagon Receptor relative activity: relative to the native hormone of the indicated receptor; for % activity*: glucagon receptor
T1 construct: expressed in transfected cells; host or cells: HEK293
T1 sequence (P47871 26-477): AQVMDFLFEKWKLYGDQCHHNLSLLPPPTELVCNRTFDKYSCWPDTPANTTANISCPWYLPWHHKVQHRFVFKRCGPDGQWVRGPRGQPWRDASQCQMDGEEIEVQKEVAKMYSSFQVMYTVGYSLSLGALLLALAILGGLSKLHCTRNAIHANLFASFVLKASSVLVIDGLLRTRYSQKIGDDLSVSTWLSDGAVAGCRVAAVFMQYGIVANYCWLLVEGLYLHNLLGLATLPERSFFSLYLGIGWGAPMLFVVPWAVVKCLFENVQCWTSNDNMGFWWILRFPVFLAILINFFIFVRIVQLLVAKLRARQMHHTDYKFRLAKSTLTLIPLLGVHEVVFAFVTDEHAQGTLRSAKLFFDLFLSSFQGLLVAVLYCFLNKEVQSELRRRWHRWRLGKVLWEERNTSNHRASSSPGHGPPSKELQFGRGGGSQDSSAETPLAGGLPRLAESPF

GLP-1 receptor = target: T2, GLP-1 receptor (Homo sapiens, UniProt P43220); test: cAMP synthesis functional assay (firefly luciferase reporter in HEK293 cells), GLP-1 receptor; assay type: cell-based; conditions: for GLP-1 Receptor relative activity: relative to the native hormone of the indicated receptor
T2 construct: expressed in transfected cells; host or cells: HEK293
T2 sequence (P43220 24-463, species assumed): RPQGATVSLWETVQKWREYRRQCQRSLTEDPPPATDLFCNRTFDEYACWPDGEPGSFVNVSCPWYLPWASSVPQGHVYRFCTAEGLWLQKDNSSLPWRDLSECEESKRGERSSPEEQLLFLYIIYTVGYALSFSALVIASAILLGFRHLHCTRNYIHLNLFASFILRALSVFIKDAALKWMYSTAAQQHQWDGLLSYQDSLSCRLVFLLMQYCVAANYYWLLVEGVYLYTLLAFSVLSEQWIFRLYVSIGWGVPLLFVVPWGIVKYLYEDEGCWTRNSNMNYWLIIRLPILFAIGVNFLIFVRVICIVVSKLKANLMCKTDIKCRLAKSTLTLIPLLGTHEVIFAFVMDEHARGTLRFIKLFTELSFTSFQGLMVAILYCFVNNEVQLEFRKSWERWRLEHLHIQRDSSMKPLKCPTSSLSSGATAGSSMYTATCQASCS

Molecule	Glucagon Receptor relative activity (glucagon receptor; Table 1) [%]	GLP-1 Receptor relative activity (GLP-1 receptor; Table 1) [%]	also measured
HSQGTFTSDYSKYLDKIHQEEFIAWLMNT-NH2 [mt-68]	13.20	6.10	EC50 (glucagon receptor; Glucagon Receptor EC50, nM, Table 1): 1.97 nM
CNC(=O)CC[C@H](NC(=O)[C@H](CO)NC(=O)[C@@H](N)Cc1c[nH]cn1)C(=O)NCC(=O)N[C@H](C(=O)N[C@@H](Cc1ccccc1)C(=O)N[C@H](C(=O)N[C@@H](CO)C(=O)N[C@@H](CC(=O)O)C(=O)N[C@@H](Cc1ccc(O)cc1)C(=O)N[C@@H](CO)C(=O)N[C@@H](CCCCN)C(=O)N[C@@H](Cc1ccc(O)cc1)C(=O)N[C@@H](CC(C)C)C(=O)N[C@@H](CC(=O)O)C(=O)NC(C)(C)C(=O)N[C@@H](CCCNC(=N)N)C(=O)N[C@@H](CCCNC(=N)N)C(=O)N[C@@H](C)C(=O)N[C@@H](C)C(=O)N[C@@H](CC(=O)O)C(=O)N[C@@H](Cc1ccccc1)C(=O)N[C@H](C(=O)N[C@@H](C)C(=O)N[C@@H](Cc1c[nH]c2ccccc12)C(=O)N[C@@H](CC(C)C)C(=O)N[C@@H](CCSC)C(=O)N[C@@H](CC(=O)O)C(=O)N[C@@H](CCC(=O)O)C(=O)O)C(C)C)[C@@H](C)O)[C@@H](C)O [SEQ ID NO: 251]			% activity* (glucagon receptor; Table 6): 55%
FTSDYSIYLDEQAAKEFVNWLLAGGPSSGAPPPS-NH2 [mt-192]		0.06	
CC(=O)NCC[C@H](NC(=O)[C@H](CO)NC(=O)[C@@H](N)Cc1c[nH]cn1)C(=O)NCC(=O)N[C@H](C(=O)N[C@@H](Cc1ccccc1)C(=O)N[C@H](C(=O)N[C@@H](CO)C(=O)N[C@@H](CC(=O)O)C(=O)N[C@@H](Cc1ccc(O)cc1)C(=O)N[C@@H](CO)C(=O)N[C@@H](CCCCN)C(=O)N[C@@H](Cc1ccc(O)cc1)C(=O)N[C@@H](CC(C)C)C(=O)N[C@@H](CC(=O)O)C(=O)NC(C)(C)C(=O)N[C@@H](CCCNC(=N)N)C(=O)N[C@@H](CCCNC(=N)N)C(=O)N[C@@H](C)C(=O)N[C@@H](C)C(=O)N[C@@H](CC(=O)O)C(=O)N[C@@H](Cc1ccccc1)C(=O)N[C@H](C(=O)N[C@@H](C)C(=O)N[C@@H](Cc1c[nH]c2ccccc12)C(=O)N[C@@H](CC(C)C)C(=O)N[C@@H](CC(C)C)C(=O)N[C@@H](CC(=O)O)C(=O)N[C@H](C(=O)NCC(=O)N1CCC[C@H]1C(=O)N[C@@H](CO)C(=O)N[C@@H](CO)C(=O)NCC(=O)N[C@@H](C)C(=O)N1CCC[C@H]1C(=O)N1CCC[C@H]1C(=O)N1CCC[C@H]1C(=O)N[C@@H](CO)C(N)=O)[C@@H](C)O)C(C)C)[C@@H](C)O)[C@@H](C)O [SEQ ID NO: 254] (H-HS[Dab](Ac)GTFTSDYSKYLD[Aib]RRAADFVAWLLDTGPSSGAPPPS-NH2; N-terminus assumed)			% activity* (glucagon receptor; Table 7): 113%
CC[C@H](C)[C@H](NC(=O)[C@H](CO)NC(=O)[C@H](Cc1ccc(O)cc1)NC(=O)[C@H](CC(=O)O)NC(=O)[C@H](CO)NC(=O)[C@@H](NC(=O)[C@H](Cc1ccccc1)NC(=O)[C@@H](NC(=O)CNC(=O)[C@H](CCC(=O)O)NC(=O)C(C)(C)NC(=O)[C@@H](N)Cc1ccc(O)cc1)[C@@H](C)O)[C@@H](C)O)C(=O)N[C@@H](Cc1ccc(O)cc1)C(=O)N[C@@H](CC(C)C)C(=O)N[C@@H](CC(=O)O)C(=O)N[C@@H](CCCCN)C(=O)N[C@@H](CCC(N)=O)C(=O)N[C@@H](C)C(=O)N[C@@H](C)C(=O)NC(C)(C)C(=O)N[C@@H](CCC(=O)O)C(=O)N[C@@H](Cc1ccccc1)C(=O)N[C@H](C(=O)N[C@@H](CCCCN)C(=O)N[C@@H](Cc1c[nH]c2ccccc12)C(=O)N[C@@H](CC(C)C)C(=O)N[C@@H](CC(C)C)C(=O)N[C@@H](C)C(=O)NCC(=O)NCC(=O)N1CCC[C@H]1C(=O)N[C@@H](CO)C(=O)N[C@@H](CO)C(=O)NCC(=O)N[C@@H](C)C(=O)N1CCC[C@H]1C(=O)N1CCC[C@H]1C(=O)N1CCC[C@H]1C(=O)N[C@@H](CO)C(N)=O)C(C)C [mt-268]			EC50 (glucagon receptor; Glucagon Receptor EC50, cAMP luciferase reporter assay as in Example 16): 6.5 nM; EC50 (GLP-1 receptor; GLP-1 Receptor EC50, cAMP luciferase reporter assay as in Example 16): 0.0155 nM
CC[C@H](C)[C@H](NC(=O)[C@H](CO)NC(=O)[C@H](Cc1ccc(O)cc1)NC(=O)[C@H](CC(=O)O)NC(=O)[C@H](CO)NC(=O)[C@@H](NC(=O)[C@H](Cc1ccccc1)NC(=O)[C@@H](NC(=O)CNC(=O)[C@H](CCC(N)=O)NC(=O)C(C)(C)N)[C@@H](C)O)[C@@H](C)O)C(=O)N[C@@H](Cc1ccc(O)cc1)C(=O)N[C@@H](CC(C)C)C(=O)N[C@@H](CC(=O)O)C(=O)N[C@@H](CCC(=O)O)C(=O)N[C@@H](CCC(=O)O)C(=O)N[C@@H](C)C(=O)N[C@H](C(=O)N[C@@H](CCCNC(=N)N)C(=O)N[C@@H](CC(C)C)C(=O)N[C@@H](Cc1ccccc1)C(=O)N[C@H](C(=O)N[C@@H](CC(N)=O)C(=O)N[C@@H](Cc1c[nH]c2ccccc12)C(=O)N[C@@H](CC(C)C)C(=O)N[C@@H](CC(C)C)C(=O)N[C@@H](C)C(=O)NCC(=O)NCC(=O)N1CCC[C@H]1C(=O)N[C@@H](CO)C(=O)N[C@@H](CO)C(=O)NCC(=O)N[C@@H](C)C(=O)N1CCC[C@H]1C(=O)N1CCC[C@H]1C(=O)N1CCC[C@H]1C(=O)N[C@@H](CO)C(N)=O)C(C)C)C(C)C [mt-194] (H-[Aib]QGTFTSDYSIYLDEEAVRLFVNWLLAGGPSSGAPPPS-NH2; N-terminus assumed)		0.63	
CC(=O)NCC[C@H](NC(=O)[C@H](CO)NC(=O)[C@@H](N)Cc1c[nH]cn1)C(=O)NCC(=O)N[C@H](C(=O)N[C@@H](Cc1ccccc1)C(=O)N[C@H](C(=O)N[C@@H](CO)C(=O)N[C@@H](CC(=O)O)C(=O)N[C@@H](Cc1ccc(O)cc1)C(=O)N[C@@H](CO)C(=O)N[C@@H](CCCCN)C(=O)N[C@@H](Cc1ccc(O)cc1)C(=O)N[C@@H](CC(C)C)C(=O)N[C@@H](CC(=O)O)C(=O)NC(C)(C)C(=O)N[C@@H](CCCNC(=N)N)C(=O)N[C@@H](CCCNC(=N)N)C(=O)N[C@@H](C)C(=O)N[C@H](C(=O)N[C@@H](CC(=O)O)C(=O)N[C@@H](Cc1ccccc1)C(=O)N[C@H](C(=O)N[C@H](C(=O)N[C@@H](Cc1c[nH]c2ccccc12)C(=O)N[C@@H](CC(C)C)C(=O)N[C@@H](CC(C)C)C(=O)N[C@@H](CC(=O)O)C(=O)N[C@@H](CCC(=O)O)C(=O)O)[C@@H](C)O)C(C)C)[C@@H](C)O)[C@@H](C)O)[C@@H](C)O [SEQ ID NO: 256] (H-HS[Dab](Ac)GTFTSDYSKYLD[Aib]RRATDFVTWLLDE-OH; N-terminus and C-terminus assumed)			% activity* (glucagon receptor; Table 7): 46%

Second part, led by results:

Glucagon Receptor relative activity (glucagon receptor; Table 1) [%]	GLP-1 Receptor relative activity (GLP-1 receptor; Table 1) [%]	Molecule	also measured
14.33	150.00	CC[C@H](C)[C@H](NC(=O)[C@H](Cc1ccccc1)NC(=O)[C@@H]1CCC(=O)NCCCC[C@@H]2NC(=O)[C@@H](NC(=O)[C@H](CC(=O)O)NC(=O)[C@H](CC(C)C)NC(=O)[C@H](Cc3ccc(O)cc3)NC(=O)[C@@H](NC(=O)[C@H](CO)NC(=O)[C@H](Cc3ccc(O)cc3)NC(=O)[C@H](CC(=O)O)NC(=O)[C@H](CO)NC(=O)[C@@H](NC(=O)[C@H](Cc3ccccc3)NC(=O)[C@@H](NC(=O)CNC(=O)[C@H](CCC(N)=O)NC(=O)[C@H](CO)NC(=O)[C@@H](N)Cc3c[nH]cn3)[C@@H](C)O)[C@@H](C)O)[C@@H](C)CC)CCC(=O)NCCCC[C@H](NC(=O)[C@H](CCC(N)=O)NC(=O)[C@H](Cc3c[nH]cn3)NC2=O)C(=O)N1)C(=O)N[C@@H](C)C(=O)N[C@@H](Cc1c[nH]c2ccccc12)C(=O)N[C@@H](CC(C)C)C(=O)N[C@@H](CC(C)C)C(=O)N[C@@H](C)C(=O)N[C@@H](CCC(N)=O)C(N)=O [mt-93]	EC50 (GLP-1 receptor; GLP-1 Receptor EC50, nM, Table 1): 0.04 nM
13.00	38.46	HSQGTFTSDYSKYLDEIHQKEFIAWLLAQ-NH2 [mt-66]	
0.13	0.07	CC[C@H](C)[C@H](NC(=O)[C@H](CO)NC(=O)[C@H](Cc1ccc(O)cc1)NC(=O)[C@H](CC(=O)O)NC(=O)[C@H](CO)NC(=O)[C@@H](NC(=O)[C@H](Cc1ccccc1)NC(=O)[C@@H](NC(=O)CN)[C@@H](C)O)[C@@H](C)O)C(=O)N[C@@H](Cc1ccc(O)cc1)C(=O)N[C@@H](CC(C)C)C(=O)N[C@@H](CC(=O)O)C(=O)N[C@H]1CCC(=O)NCCCC[C@@H](C(=O)N[C@@H](CCC(=O)O)C(=O)N[C@@H](Cc2ccccc2)C(=O)N[C@H](C(=O)N[C@@H](CC(N)=O)C(=O)N[C@@H](Cc2c[nH]c3ccccc23)C(=O)N[C@@H](CC(C)C)C(=O)N[C@@H](CC(C)C)C(=O)N[C@@H](C)C(=O)NCC(N)=O)C(C)C)NC(=O)[C@H](C)NC(=O)[C@H](C)NC(=O)[C@H](CCC(N)=O)NC1=O [mt-197] (H-GTFTSDYSIYLDEQAAKEFVNWLLAG-NH2; lactam 13-17; N-terminus assumed)	
0.28	0.05	CC[C@H](C)[C@@H]1NC(=O)[C@@H](NC(=O)[C@H](CC(=O)O)NC(=O)[C@H](CC(C)C)NC(=O)[C@H](Cc2ccc(O)cc2)NC(=O)[C@H](CCCCN)NC(=O)[C@H](CO)NC(=O)[C@H](Cc2ccc(O)cc2)NC(=O)[C@H](CC(=O)O)NC(=O)[C@H](CO)NC(=O)[C@@H](NC(=O)[C@@H](O)Cc2ccccc2)[C@@H](C)O)CCC(=O)NCCCC[C@@H](C(=O)N[C@@H](CC(=O)O)C(=O)N[C@@H](Cc2ccccc2)C(=O)N[C@H](C(=O)N[C@@H](CC(N)=O)C(=O)N[C@@H](Cc2c[nH]c3ccccc23)C(=O)N[C@@H](CC(C)C)C(=O)N[C@@H](CC(C)C)C(=O)N[C@@H](C)C(=O)N[C@@H](CCC(N)=O)C(N)=O)C(C)C)NC(=O)[C@H](CCC(N)=O)NC(=O)[C@H](Cc2c[nH]cn2)NC1=O [mt-114] (H-[PhLac]TSDYSKYLDEIHQKDFVNWLLAQ-NH2; lactam 11-15)	
0.11	0.02	YAEGTFISDYSIAMDKIHQQDFVNWLLAQ-NH2 [mt-106]	
